Data set [1] has as its target T1, K2P10.1 (TREK-2)^CG* (Mus musculus, UniProt Q8BUW1, S153C).
T1 construct: Modified TREK-2 from Mus musculus; expressed in transfected cells; host or cells: Xenopus laevis oocytes injected with mRNA
T1 sequence (Q8BUW1 with tags, fused parts or gaps S153C): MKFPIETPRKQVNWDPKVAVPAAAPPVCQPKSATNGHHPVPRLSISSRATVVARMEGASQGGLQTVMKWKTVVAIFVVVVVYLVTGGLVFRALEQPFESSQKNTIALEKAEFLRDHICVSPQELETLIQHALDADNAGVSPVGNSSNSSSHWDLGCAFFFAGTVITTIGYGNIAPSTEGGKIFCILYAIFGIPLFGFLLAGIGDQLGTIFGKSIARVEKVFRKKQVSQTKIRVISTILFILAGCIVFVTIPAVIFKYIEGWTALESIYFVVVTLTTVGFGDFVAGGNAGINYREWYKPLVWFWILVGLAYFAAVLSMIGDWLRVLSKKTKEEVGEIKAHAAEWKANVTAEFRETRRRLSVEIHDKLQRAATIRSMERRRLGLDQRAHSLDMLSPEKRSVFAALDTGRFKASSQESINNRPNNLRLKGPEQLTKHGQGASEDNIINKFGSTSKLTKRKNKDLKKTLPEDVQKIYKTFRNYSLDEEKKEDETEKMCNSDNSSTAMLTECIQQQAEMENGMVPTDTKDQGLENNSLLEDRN
Put plainly: TEVC in Xenopus oocytes. The conditions noted are these: 20 μM, Xenopus oocytes. The class given is cell-based.

Data set [2] has as its target T2, K2P2.1 (TREK-1) S131A (Mus musculus, UniProt P97438, S146A).
T2 construct: expressed in transfected cells; host or cells: Xenopus laevis oocytes injected with mRNA
T2 sequence (P97438 1-411 isoform P97438-2 S131A): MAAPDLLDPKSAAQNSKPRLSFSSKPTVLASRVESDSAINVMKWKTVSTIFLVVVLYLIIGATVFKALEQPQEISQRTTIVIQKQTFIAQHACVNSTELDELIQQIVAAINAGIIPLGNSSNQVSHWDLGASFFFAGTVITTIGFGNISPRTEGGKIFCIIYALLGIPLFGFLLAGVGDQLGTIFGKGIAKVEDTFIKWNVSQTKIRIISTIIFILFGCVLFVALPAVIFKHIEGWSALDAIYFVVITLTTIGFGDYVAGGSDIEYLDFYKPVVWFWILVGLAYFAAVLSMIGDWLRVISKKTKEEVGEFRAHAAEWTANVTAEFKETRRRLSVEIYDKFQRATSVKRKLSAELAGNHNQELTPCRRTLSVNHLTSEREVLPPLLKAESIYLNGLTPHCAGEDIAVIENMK
Put plainly: TEVC in Xenopus oocytes. It is filed as cell-based. The settings on record: 20 μM, 0 mV.

The target of data set [3] is T3, K2P4.1 (TRAAK) (Homo sapiens, UniProt Q9NYG8).
T3 sequence (Q9NYG8 1-393): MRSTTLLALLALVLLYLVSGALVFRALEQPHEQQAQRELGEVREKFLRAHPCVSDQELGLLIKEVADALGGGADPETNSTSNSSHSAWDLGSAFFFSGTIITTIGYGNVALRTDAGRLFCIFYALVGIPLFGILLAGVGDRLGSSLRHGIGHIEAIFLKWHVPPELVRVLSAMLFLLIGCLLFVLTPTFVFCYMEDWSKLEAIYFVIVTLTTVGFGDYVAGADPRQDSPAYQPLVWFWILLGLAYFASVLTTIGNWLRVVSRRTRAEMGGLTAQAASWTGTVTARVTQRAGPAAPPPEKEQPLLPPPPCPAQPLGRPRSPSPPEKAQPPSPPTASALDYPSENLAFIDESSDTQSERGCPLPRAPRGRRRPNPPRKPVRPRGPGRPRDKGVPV
The conditions noted are these: previous studies; cited from earlier work.

Data set [4] can be described thus: Solubility in aqueous solutions (crystallization sample preparation). The class given is physicochemical. The procedure: K2P2.1cryst ML335 and ML402 complex crystals grew in the same conditions as K2P2.1cyst, but the protein was incubated for at least 1 h with 2.5 mM of activator before setting the crystal plates. […] Then each compound was diluted 1:100 in SEC buffer to 5 mM concentration, giving a milky solution. This solution was mixed 1:1 to K2P2.1cryst previously concentrated to 12 mg ml^−1. […] The samples were briefly centrifuged in a table-top centrifuge (10,000 g) to remove any insoluble material before setting the crystal plates.

For the molecule `O=C(NCc1ccc(Cl)cc1Cl)c1ccc(N2C(=O)C=CC2=O)cc1` [CAT335], the “Fold-activation (I activator/I control)” value in data set [1] (0 mV) came to 18±2 fold. Besides, the Reversibility of activation result in data set [1] is given as “irreversibly activated”.

`CS(=O)(=O)Nc1ccc(C(=O)NCc2ccc(Cl)cc2Cl)cc1` [ML335, reference compound]: in data set [2], the “Fold-activation (I activator/I control)” value is recorded as 6.8 fold. The “Sensitivity of channel to activator” value in data set [3] was “insensitive”. Besides, the “Solubility in aqueous solutions” value in data set [4] is “insoluble in aqueous solutions”.
